Results taken from US7544675B2, “Chemical compounds with dual activity, processes for their preparation and pharmaceutical compositions” (UCB, S.A., priority 2002, dated 2009).

Experiments:
PDE IV = PDE IV enzymatic activity (SPA phosphodiesterase assay, cytosolic fraction from U937 cells); assay type: biochemical; conditions: qualitative statement
Method: Cytosolic fraction from U937 cells pre-stimulated for 4 h at 37° C. with a mixture of rolipram 30 μM and salbutamol 1 μM (Torphy T. J., Zhou H. L., Cieslinski L. B., J. Pharmacol. Exp. Ther. (1992), 263 (3), 1195-1205).
Assays were performed in 100 μL of 50 mM Tris HCl buffer (pH 7.4) containing 5 mM MgCl2, 2 mM EGTA, 20 nM of [^3H]-cAMP (40-60 Ci/mmol), the cytosolic fraction of 50,000 U937 cells and the appropriate concentration of test compound (usually 10 μM) dissolved in DMSO (final assay concentration not exceeding 1%). After 30 min incubation at room temperature, 0.5 mg of SPA yttrium silicate beads are added to each sample. Radioactivity bound to the beads (5′-AMP) is determined by liquid scintillation. Non PDE IV activity and/or non specific binding of the labeled substrate to the SPA beads is defined as the residual radioactivity remaining in the presence of rolipram 32 μM (non PDE IV activity represents about 40% of total activity). PDE IV activity is determined by subtracting the non PDE TV activity from the total activity.

[1] = target: T1, human m3 muscarinic receptor (Homo sapiens, UniProt P20309); assay: Affinity for human muscarinic receptors ([3H]-NMS binding, CHO cell membranes); conditions: qualitative statement
T1 construct: expressed in transfected cells; host or cells: CHO (Chinese Hamster Ovarian) cells, crude membrane fraction
Method: Chinese Hamster Ovarian cells (CHO) expressing the human recombinant m1, m2, m3, m4 and m5 receptors were cultured in Ham's F12 media supplemented with 100 IU/ml of penicillin, 100 μg/ml of streptomycin, 400 μg/ml of geneticin and 5% of fetal bovine serum. Cell cultures were maintained in a humidified incubator at 37° C. and 5% CO2.
Confluent CHO cells expressing human m1, m2, m3, m4 and m5 muscarinic receptors were harvested and resuspended in phosphate buffered saline without calcium and magnesium. The cell suspension was centrifuged at 1500×g for 3 min (4° C.). The cell pellet was homogenized in a 15 mM Tris-HCl (pH 7.5) buffer containing 2 mM MgCl2, 0.3 mM EDTA and 1 mM EGTA. The crude membrane fraction was collected by two consecutive centrifugation steps at 40,000×g for 25 min (4° C.). The final pellet was resuspended, at a protein concentration ranging from 2 to 6 mg/ml, in a 7.5 mM Tris-HCl (pH 7.5) buffer containing 12.5 mM MgCl2, 0.3 mM EDTA, 1 mM EGTA and 250 mM sucrose and stored in liquid nitrogen.
Binding assays were performed according to procedure described in: Buckley N. J., Bonner T. I., Buckley C. M., Brann M. R., Mol. Pharmacol. (1989), 35, 469-476, but with slight modifications.
Briefly, 25 to 50 μg of membrane proteins were incubated at room temperature in 1 ml of a 50 mM Tris-HCl (pH 7.4) buffer containing 2 mM of MgCl2, 0.1 nM of [^3H]-NMS (N-methylscopolamine, 85 Ci/mmol, from Apbiotech, UK) and increasing concentrations of test compound dissolved in DMSO (1% final concentration). Non specific binding was measured in the presence of 1 μM atropine. After 60 (m2) or 120 (m3) min. incubation, assays were stopped by rapid vacuum filtration of the samples through glass fiber filters (Filtermat A, Wallac, Belgium) presoaked in 0.3% polyethyleneimine for at least 2 h. Samples were further rinsed with 8 ml of ice-cold 50 mM Tris-HCl (pH 7.4) buffer. Radioactivity trapped onto the filter was counted in a Betaplate counter (Wallac). Competition binding curves were analyzed by non-linear regression with XLfit software (UDBS, UK).

T1 sequence (P20309 whole entry): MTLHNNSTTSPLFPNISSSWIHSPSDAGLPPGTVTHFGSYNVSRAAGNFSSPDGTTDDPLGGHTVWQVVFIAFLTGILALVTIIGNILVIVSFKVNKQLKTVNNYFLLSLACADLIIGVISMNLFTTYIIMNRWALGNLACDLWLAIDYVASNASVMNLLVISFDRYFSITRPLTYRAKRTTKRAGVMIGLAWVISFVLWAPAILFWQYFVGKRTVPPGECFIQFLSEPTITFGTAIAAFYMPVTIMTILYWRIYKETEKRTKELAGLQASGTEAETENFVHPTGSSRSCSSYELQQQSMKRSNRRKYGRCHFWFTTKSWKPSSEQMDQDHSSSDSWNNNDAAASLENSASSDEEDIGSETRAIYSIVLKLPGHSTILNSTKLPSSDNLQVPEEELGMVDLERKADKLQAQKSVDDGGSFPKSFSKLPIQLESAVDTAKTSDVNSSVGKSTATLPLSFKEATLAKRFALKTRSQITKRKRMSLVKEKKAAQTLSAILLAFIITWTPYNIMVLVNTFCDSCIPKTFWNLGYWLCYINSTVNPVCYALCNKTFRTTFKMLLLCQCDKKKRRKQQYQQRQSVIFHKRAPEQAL

SMILES	Dual high affinities: PDE IV part (PDE IV)	Dual high affinities: m3 receptor part [1]
Cc1c(NCc2c(F)cccc2F)nc(C2CC2)nc1NC1CC1 [Compound 132, N^4,2-dicyclopropyl-N^6-(2,6-difluorobenzyl)-5-methyl-4,6-pyrimidinediamine]	high affinities	high affinities
Cc1c(NC2CCC(C)CC2)nc(C2CC2)nc1NC1CC1 (stereo not shown) [Compound 145, N^4,2-dicyclopropyl-5-methyl-N^6-(4-methylcyclohexyl)-4,6-pyrimidinediamine]	high affinities	high affinities
Cc1c(NC2CC2)nc(C2CCCC2)nc1N1CCCCCC1 [Compound 154, 6-(1-azepanyl)-2-cyclopentyl-N-cyclopropyl-5-methyl-4-pyrimidinamine]	high affinities	high affinities
C1CCCN(c2nc(C3CC3)nc3c2CCCN3)CC1 [Compound 155, 4-azepan-1-yl-2-cyclopropyl-5,6,7,8-tetrahydro-pyrido[2,3-d]pyrimidine]	high affinities	high affinities
C1CCCN(c2nc(C3CC3)nc3c2CCCCN3)CC1 [Compound 156, 4-azepan-1-yl-2-cyclopropyl-6,7,8,9-tetrahydro-pyrimido[4,5-b]azepine]	high affinities	high affinities
Cc1c(NC2CC2)nc(C2CC2)nc1N1CCCCC1 [Compound 175, N,2-dicyclopropyl-5-methyl-6-(1-piperidinyl)-4-pyrimidinamine]	high affinities	high affinities
Cc1c(NC2CC2)nc(C2CC2)nc1N1CC2CCC(CC2)C1 [Compound 176, 6-(3-azabicyclo[3.2.2]non-3-yl)-N,2-dicyclopropyl-5-methyl-4-pyrimidinamine]	high affinities	high affinities
Cc1c(NC2CC2)nc(C2CC2)nc1N1CCCC1 [Compound 180, N,2-dicyclopropyl-5-methyl-6-(1-pyrrolidinyl)-4-pyrimidinamine]	high affinities	high affinities
Cc1c(N2CCCCCC2)nc(C2CC2)nc1N1CCC1 [Compound 184, 1-(6-azetidin-1-yl-2-cyclopropyl-5-methylpyrimidin-4-yl)azepane]	high affinities	high affinities
Cc1c(N2CCCCCC2)nc(C2CC2)nc1N1CC(C)C1 [Compound 185, 1-[2-cyclopropyl-5-methyl-6-(3-methylazetidin-1-yl)pyrimidin-4-yl]azepane]	high affinities	high affinities
Cc1c(N2CCCCCC2)nc(C2CC2)nc1N1CC(O)C1 [Compound 189, 1-(6-azepan-1-yl-2-cyclopropyl-5-methylpyrimidin-4-yl)azetidin-3-ol]	high affinities	high affinities
CC1CN(c2cc(N3CCCCCC3)nc(C3CC3)n2)C1 [Compound 191, 1-[2-cyclopropyl-6-(3-methylazetidin-1-yl)pyrimidin-4-yl]azepane]	high affinities	high affinities
c1c(N2CCCCCC2)nc(C2CC2)nc1N1CCC1 [Compound 192, 1-(6-azetidin-1-yl-2-cyclopropylpyrimidin-4-yl)azepane]	high affinities	high affinities
Cc1c(N2CCCCCC2)nc(C2CC2)nc1N1CC(F)C1 [Compound 194, 1-[2-cyclopropyl-6-(3-fluoroazetidin-1-yl)-5-methylpyrimidin-4-yl]azepane]	high affinities	high affinities
